The text below walks through data of the OligoGym collection.

HELM strings list units from the 5' end as sugar, base in round brackets, then linkage (d deoxyribose, r ribose, m 2'-O-methyl, p phosphodiester). Strings are as the collection lists them; they lack the last nucleoside at the 3' end of the tested compound. [moe] = 2'-O-(2-methoxyethyl) (MOE); [sp] = phosphorothioate linkage; [m5C] = 5-methylcytosine

The target in this series is ATXN2. Kind of series: mouse, dose not given. The conditions noted are these: ASO.

In turn, “RNA1{[moe](G)[sp].[moe](T)p.[moe](T)p.[moe](A)p.d([m5C])[sp].d(T)[sp].d(G)[sp].d(T)[sp].d(T)[sp].d(T)[sp].d([m5C])[sp].d(G)[sp].d(A)[sp].d([m5C])[sp].[moe]([m5C])p.[moe](T)p.[moe]([m5C])p.[moe](T)[sp].[moe](G)}$$$$ (last 3' nucleoside missing)” showed a 3 h FOB score of 6.5 score 0-7.

In turn, “RNA1{[moe](A)[sp].[moe](G)p.[moe](T)p.[moe]([m5C])p.[moe](T)p.d(T)[sp].d(G)[sp].d(T)[sp].d(T)[sp].d([m5C])[sp].d(A)[sp].d(G)[sp].d(T)[sp].d(G)[sp].d(T)[sp].[moe]([m5C])p.[moe]([m5C])p.[moe](T)[sp].[moe](T)}$$$$ (last 3' nucleoside missing)” had a 3 h FOB score of 5 score 0-7.

As to “RNA1{[moe](G)[sp].[moe](A)p.[moe](A)p.[moe](T)p.[moe]([m5C])p.d(T)[sp].d(T)[sp].d(A)[sp].d(T)[sp].d(T)[sp].d(A)[sp].d(A)[sp].d(G)[sp].d([m5C])[sp].d(A)[sp].[moe](A)p.[moe](G)p.[moe](T)[sp].[moe]([m5C])}$$$$ (last 3' nucleoside missing)”, the 3 h FOB score was 2.5 score 0-7.

As to “RNA1{[moe](T)[sp].[moe]([m5C])p.[moe](T)p.[moe](A)p.[moe](T)p.d(T)[sp].d(T)[sp].d([m5C])[sp].d(T)[sp].d(T)[sp].d(T)[sp].d(G)[sp].d(T)[sp].d([m5C])[sp].d([m5C])[sp].[moe](A)p.[moe](G)p.[moe](G)[sp].[moe](A)}$$$$ (last 3' nucleoside missing)”, the 3 h FOB score came out at 6.5 score 0-7.

“RNA1{[moe]([m5C])[sp].[moe](T)p.[moe]([m5C])p.[moe]([m5C])p.[moe](A)[sp].d(T)[sp].d(T)[sp].d(A)[sp].d(T)[sp].d(T)[sp].d(T)[sp].d([m5C])[sp].d(T)[sp].[moe](T)p.[moe]([m5C])p.[moe](A)[sp].[moe]([m5C])}$$$$ (last 3' nucleoside missing)”: the 3 h FOB score is 3.5 score 0-7.

“RNA1{[moe](T)[sp].[moe](A)p.[moe](G)p.[moe]([m5C])p.[moe](T)p.d([m5C])[sp].d(A)[sp].d(T)[sp].d([m5C])[sp].d(A)[sp].d(A)[sp].d(G)[sp].d(G)[sp].d(T)[sp].d(A)[sp].[moe]([m5C])p.[moe]([m5C])p.[moe](A)[sp].[moe](G)}$$$$ (last 3' nucleoside missing)” showed a 3 h FOB score of 3 score 0-7.

In turn, “RNA1{[moe](T)[sp].[moe](T)p.[moe](T)p.[moe](T)p.[moe](G)p.d([m5C])[sp].d(T)[sp].d(T)[sp].d(A)[sp].d(T)[sp].d(T)[sp].d(A)[sp].d(T)[sp].d(T)[sp].d([m5C])[sp].[moe](T)p.[moe]([m5C])p.[moe](A)[sp].[moe]([m5C])}$$$$ (last 3' nucleoside missing)” came in with a 3 h FOB score of 0 score 0-7.

Regarding “RNA1{[moe]([m5C])[sp].[moe](T)p.[moe](G)p.[moe]([m5C])p.[moe](T)p.d(A)[sp].d(A)[sp].d([m5C])[sp].d(T)[sp].d(G)[sp].d(G)[sp].d(T)[sp].d(T)[sp].d(T)[sp].d(G)[sp].[moe]([m5C])p.[moe]([m5C])p.[moe]([m5C])[sp].[moe](T)}$$$$ (last 3' nucleoside missing)”, the 3 h FOB score is 6 score 0-7.

“RNA1{[moe](G)[sp].[moe]([m5C])p.[moe](T)p.[moe](G)p.[moe](T)p.d(A)[sp].d(T)[sp].d(T)[sp].d(T)[sp].d(T)[sp].d(T)[sp].d(A)[sp].d([m5C])[sp].d(T)[sp].d([m5C])[sp].[moe](A)p.[moe]([m5C])p.[moe]([m5C])[sp].[moe](T)}$$$$ (last 3' nucleoside missing)”: the 3 h FOB score was 0 score 0-7.

“RNA1{[moe](A)[sp].[moe]([m5C])p.[moe](T)p.[moe](G)p.[moe](G)p.d(A)[sp].d(T)[sp].d(T)[sp].d([m5C])[sp].d(T)[sp].d(G)[sp].d(T)[sp].d(A)[sp].d([m5C])[sp].d(T)[sp].[moe](T)p.[moe](T)p.[moe](T)[sp].[moe]([m5C])}$$$$ (last 3' nucleoside missing)” displayed a 3 h FOB score of 2 score 0-7.

In turn, “RNA1{[moe](G)[sp].[moe](A)p.[moe](T)p.[moe](T)p.[moe]([m5C])p.d(T)[sp].d(G)[sp].d(T)[sp].d(A)[sp].d([m5C])[sp].d(T)[sp].d(T)[sp].d(T)[sp].d(T)[sp].d([m5C])[sp].[moe](T)p.[moe]([m5C])p.[moe](A)[sp].[moe](T)}$$$$ (last 3' nucleoside missing)” displayed a 3 h FOB score of 4.5 score 0-7.

Consider “RNA1{[moe](A)[sp].[moe]([m5C])p.[moe](G)p.[moe]([m5C])p.[moe](T)p.d(G)[sp].d(T)[sp].d(A)[sp].d(T)[sp].d(T)[sp].d(T)[sp].d(T)[sp].d(T)[sp].d(A)[sp].d([m5C])[sp].[moe](T)p.[moe]([m5C])p.[moe](A)[sp].[moe]([m5C])}$$$$ (last 3' nucleoside missing)”, for which the 3 h FOB score amounted to 0 score 0-7.

In turn, “RNA1{[moe](A)[sp].[moe]([m5C])p.[moe](T)p.[moe](T)p.[moe]([m5C])p.d(A)[sp].d([m5C])[sp].d(A)[sp].d(T)[sp].d(T)[sp].d(T)[sp].d(G)[sp].d(G)[sp].d(A)[sp].d(G)[sp].[moe]([m5C])p.[moe]([m5C])p.[moe]([m5C])[sp].[moe](T)}$$$$ (last 3' nucleoside missing)” displayed a 3 h FOB score of 5.75 score 0-7.

Regarding “RNA1{[moe](A)[sp].[moe](T)p.[moe]([m5C])p.[moe](A)p.[moe](G)p.d(T)[sp].d(T)[sp].d(T)[sp].d(G)[sp].d(T)[sp].d(A)[sp].d(T)[sp].d(G)[sp].d(A)[sp].d([m5C])[sp].[moe]([m5C])p.[moe](A)p.[moe](T)[sp].[moe](A)}$$$$ (last 3' nucleoside missing)”, the 3 h FOB score was determined as 3 score 0-7.

Substance “RNA1{[moe](T)[sp].[moe]([m5C])p.[moe](T)p.[moe](G)p.[moe](T)[sp].d(A)[sp].d([m5C])[sp].d(T)[sp].d(T)[sp].d(T)[sp].d(T)[sp].d([m5C])[sp].d(T)[sp].d([m5C])[sp].d(A)[sp].[moe](T)p.[moe](G)p.[moe](T)[sp].[moe](G)}$$$$ (last 3' nucleoside missing)” registered a 3 h FOB score of 0 score 0-7.

As to “RNA1{[moe](G)[sp].[moe](G)p.[moe](T)p.[moe](G)p.[moe](A)p.d(T)[sp].d(G)[sp].d(T)[sp].d(T)[sp].d(T)[sp].d([m5C])[sp].d(A)[sp].d(T)[sp].d(T)[sp].d(G)[sp].[moe](G)p.[moe](G)p.[moe](T)[sp].[moe](T)}$$$$ (last 3' nucleoside missing)”, the 3 h FOB score worked out at 4.5 score 0-7.

“RNA1{[moe](G)[sp].[moe](G)p.[moe](T)p.[moe](A)p.[moe]([m5C])p.d(A)[sp].d([m5C])[sp].d(A)[sp].d(G)[sp].d(T)[sp].d(T)[sp].d(T)[sp].d([m5C])[sp].d(A)[sp].d([m5C])[sp].[moe](T)p.[moe](A)p.[moe](G)[sp].[moe](G)}$$$$ (last 3' nucleoside missing)”: the 3 h FOB score stood at 4.75 score 0-7.

Regarding “RNA1{[moe](T)[sp].[moe]([m5C])p.[moe](T)p.[moe](G)p.[moe](T)p.d(A)[sp].d([m5C])[sp].d(T)[sp].d(T)[sp].d(T)[sp].d(T)[sp].d([m5C])[sp].d(T)[sp].d([m5C])[sp].d(A)[sp].[moe](T)p.[moe](G)p.[moe](T)[sp].[moe](G)}$$$$ (last 3' nucleoside missing)”, the 3 h FOB score was determined as 0 score 0-7.
